Among the data in patent publication US20090068146A1, “DIARYL UREAS AND COMBINATIONS” (priority 2005, published 2009) are melting point values, retold here.

SMILES strings stand for the structures.

For `COc1ccc(C(F)(F)F)cc1NC(=O)Nc1ccc(Oc2ccnc(C(N)=O)c2)cc1` [Entry 14, 4-[4-({N-[2-methoxy-5-(trifluoromethyl)phenyl]carbamoyl}amino)phenoxy]pyridine-2-carboxamide], the melting point lay in the range of 114 to 117 °C. The figure for `CNC(=O)c1cc(Oc2ccc(NC(=O)Nc3cc(C(F)(F)F)ccc3OC)c(C)c2)ccn1` [Entry 16, {4-[4-({N-[2-methoxy-5-(trifluoromethyl)phenyl]carbamoyl}amino)-3-methylphenoxy](2-pyridyl)}-N-methylcarboxamide] is 210 to 213 °C; for `CNC(=O)c1cc(Oc2ccc(NC(=O)Nc3cc(C(F)(F)F)ccc3OC)c(Cl)c2)ccn1` [Entry 17, ({2-chloro-4-[2-(N-methylcarbamoyl)(4-pyridyloxy)]phenyl}amino)-N-[2-methoxy-5-(trifluoromethyl)phenyl]carboxamide] it is 187 to 188 °C; for `CCNC(=O)c1cc(Oc2ccc(NC(=O)Nc3cc(C(F)(F)F)ccc3OC)cc2)ccn1` [Entry 19, ({4-[2-(N-ethylcarbamoyl)(4-pyridyloxy)]phenyl}amino)-N-[2-methoxy-5-(trifluoromethyl)phenyl]carboxamide] it is 194 to 196 °C. `CNC(=O)c1cc(Oc2ccc(NC(=O)Nc3cc(C(F)(F)F)ccc3OC)cc2Cl)ccn1` [Entry 20, ({3-chloro-4-[2-(N-methylcarbamoyl)(4-pyridyloxy)]phenyl}amino)-N-[2-methoxy-5-(trifluoromethyl)phenyl]carboxamide] came in with a melting point of 214 to 216 °C. The molecule `CNC(=O)c1cc(Sc2ccc(NC(=O)Nc3cc(C(F)(F)F)ccc3OC)cc2)ccn1` [Entry 27, N-[2-methoxy-5-(trifluoromethyl)phenyl]({4-[2-(N-methylcarbamoyl)(4-pyridylthio)]phenyl}amino)carboxamide] yielded a melting point of 218 to 219 °C. The figure for `CNC(=O)c1cc(Oc2ccc(NC(=O)Nc3ccc(Cl)c(C(F)(F)F)c3)c(Cl)c2)ccn1` [Entry 49, {4-[3-chloro-4-({[4-chloro-3-(trifluoromethyl)phenyl]amino}carbonylamino)phenoxy](2-pyridyl)}-N-methylcarboxamide] is 147 to 151 °C; for `CCNC(=O)c1cc(Oc2ccc(NC(=O)Nc3ccc(Cl)c(C(F)(F)F)c3)cc2)ccn1` [Entry 51, N-[4-chloro-3-(trifluoromethyl)phenyl]({4-[2-(N-ethylcarbamoyl)(4-pyridyloxy)]phenyl}amino)carboxamide] it is 187 to 189 °C; for `CNC(=O)c1cc(Oc2ccc(NC(=O)Nc3ccc(Br)c(C(F)(F)F)c3)cc2Cl)ccn1` [Entry 87, {4-[4-({[4-bromo-3-(trifluoromethyl)phenyl]amino}carbonylamino)-2-chlorophenoxy](2-pyridyl)}-N-methylcarboxamide] it is 217 to 219 °C. Under `CCNC(=O)c1cc(Oc2ccc(NC(=O)Nc3ccc(Br)c(C(F)(F)F)c3)cc2)ccn1` [Entry 88, N-[4-bromo-3-(trifluoromethyl)phenyl]({4-[2-(N-ethylcarbamoyl)(4-pyridyloxy)]phenyl}amino)carboxamide] stands 183 to 184 °C; under `CNC(=O)c1cc(Oc2ccc(NC(=O)Nc3cc(C(F)(F)F)c(Cl)cc3OC)cc2)ccn1` [Entry 95, N-[4-chloro-2-methoxy-5-(trifluoromethyl)phenyl]({4-[2-(N-methylcarbamoyl)(4-pyridyloxy)]phenyl}amino)carboxamide], 140 to 144 °C.

As to `CNC(=O)c1cc(Oc2ccc(NC(=O)Nc3cc(C(F)(F)F)c(Cl)cc3OC)c(Cl)c2)ccn1` [Entry 96, N-[4-chloro-2-methoxy-5-(trifluoromethyl)phenyl]({2-chloro-4-[2-(N-methylcarbamoyl)(4-pyridyloxy)]phenyl}amino)carboxamide], the melting point was 244 to 245 °C. `CNC(=O)c1cc(Oc2ccc(NC(=O)Nc3cc(C(F)(F)F)c(Cl)cc3OC)cc2Cl)ccn1` [Entry 97, N-[4-chloro-2-methoxy-5-(trifluoromethyl)phenyl]({3-chloro-4-[2-(N-methylcarbamoyl)(4-pyridyloxy)]phenyl}amino)carboxamide]: the melting point lay in the range of 220 to 221 °C. Consider `CCNC(=O)c1cc(Oc2ccc(NC(=O)Nc3cc(C(F)(F)F)c(Cl)cc3OC)cc2)ccn1` [Entry 99, N-[4-chloro-2-methoxy-5-(trifluoromethyl)phenyl]({4-[2-(N-ethylcarbamoyl)(4-pyridyloxy)]phenyl}amino)carboxamide], for which the melting point was 180 to 181 °C.

The term melting point denotes the temperature of the solid-liquid transition.
